Consider 2 molecules from patent US8222187B2, “Method for improving the phytoremediation of polluted sites by providing plants with exogenous carbohydrates” (Universite de Rennes 1, priority 2003, dated 2012).

Experiment [1] deals with Arabidopsis thaliana. As to the kind of experiment: Length of the primary roots of Arabidopsis thaliana after 15 days of culture on agar medium. Format: in vivo. The protocol: (§1) Arabidopsis thaliana seeds (Wassilewskija ecotype) were sterilised at the surface according to the standard protocol and then rinsed with absolute ethanol and dried for one night.
(§2) These seeds were cultivated in Petri dishes on a culture medium of Murashige and Skoog (adjusted to a pH of 5.7) containing agar (0.8%). The Petri dishes were stored for 48 h at 4° C. then transferred to 22° C. under a photoperiod of 16 hours per day at 4500 lux. The sucrose and glucose were added to the culture medium, while no sugar was added for the controls.
(§3) A growth parameter (length of the primary roots) and the pigment levels (chlorophylls and carotenoids) were measured after 15 days of culture. The atrazine levels in the plants were also measured after one month of culture.

The next experiment has as its target T1, photosystem II (Arabidopsis thaliana, UniProt P83755).
T1 construct: from tissue; host or cells: whole Arabidopsis thaliana plants grown on culture medium
Briefly: Activity of photosystem II monitored by chlorophyll fluorescence. Particulars: increasing sucrose (10 mM, 80 mM), atrazine 0.25 μM and 1 μM (lethal or sublethal doses without sucrose). Format: in vivo. How it is done:
In another experiment series, Arabidopsis thaliana plants were cultivated in the culture medium described above in the absence of sucrose and in the presence of 10 mM and 80 mM of sucrose, and in the absence of atrazine and in the presence of 0.25 μM and 1 μM of atrazine. […] The activity of photosystem II is monitored by measuring the fluorescence of the chlorophylls.

Experiment [2] relates to D1 protein of photosystem II. Briefly: D1 protein levels by Dot Blot and Western Blot. It is filed as in vivo, Arabidopsis thaliana. How it is done:
In another experiment series, Arabidopsis thaliana plants were cultivated in the culture medium described above in the absence of sucrose and in the presence of 10 mM and 80 mM of sucrose, and in the absence of atrazine and in the presence of 0.25 μM and 1 μM of atrazine. To measure the levels of D1 protein (31-kD monomer and 21.5-kD by-products), the membrane proteins of the plants were isolated according to the method of Pilgrim et al. (1998 Plant. J. 13 2-77-186). The levels of the total concentration of the target protein, D1 protein of photosystem II, were measured by Dot Blot analysis. Then, the different forms were analysed by gel electrophoresis separation under denaturing and Western Blot conditions.
(Immunoblotting shows a protein as a band on a membrane.)

The next experiment concerns superoxide ion. As to the kind of experiment: Superoxide ion production of the plants. Format: in vivo, Arabidopsis thaliana. The conditions noted are these: 10 mM sucrose. How it is done:
In addition, the superoxide ion production of the plants was tested according to the method of Fryer et al. (2002 Imaging of photo-oxidative stress responses in leaves—J. Exp. Bot. 53: 1249-1254).

Experiment [3] relates to Arabidopsis thaliana. Briefly: Arabidopsis culture on humus contaminated with atrazine. Format: in vivo. Particulars: humus with 10 μM atrazine; sucrose applied to the surface as a 3% solution. The protocol:
Atrazine concentrations were also measured in the plants and the culture medium using conventional methods of extraction with solvents and high-performance liquid chromatography analysis with UV detection. The atrazine was extracted in a methanol and water mixture (4:1, v/v). After centrifugation, the supernatants were filtered on filters of 0.45 μm and the organic solvents were evaporated at 40° C. SPE cartridges were activated by washing with 5 mL or methanol then 5 mL of water. Each sample was applied to a column and the columns were then washed. The atrazine was eluted with 2 mL of dichloromethane. The organic solvents were then evaporated and the dry residues were dissolved in 500 μL of a methanol and water mixture (1:1). The samples were then analysed by HPLC with UV detection. In additional experiments, Arabidopsis thaliana was also cultivated on a humus contaminated at a concentration of 10 μM of atrazine in the absence of sucrose and in the presence of sucrose applied to the surface in the form of a 3% solution. The cultures obtained are shown in FIG. 11, in which the left-hand container corresponds to the culture in the presence of sucrose and the right-hand container corresponds to the culture in the absence of sucrose.

Experiment [4] has as its system Arabidopsis thaliana. As to the kind of experiment: Photosynthetic pigment levels (chlorophylls and carotenoids) after 15 days of culture. Format: in vivo. The protocol:
as §1, §2, §3
The photosynthetic pigments (chlorophylls and carotenoids) were extracted by grinding the aerial portions of the plants in 80% acetone and by measuring the absorbance of the extracts corresponding to 663 nm, 646 nm and 470 nm. The levels of these pigments were expressed in μg/mL and determined according to the method of Lichtenthaler et al. (1983 Biochem. Soc. Trans. 11, 591-592).

The mark [5] stands for this setting: absence of sugars in the culture medium.

For `OC[C@H]1O[C@@](CO)(O[C@H]2O[C@H](CO)[C@@H](O)[C@H](O)[C@H]2O)[C@@H](O)[C@@H]1O` [sucrose], the “increase in root growth at higher atrazine concentrations, sucrose compared with glucose” value in the experiment with Arabidopsis thaliana [1] (80 mM sugar) is recorded as “greater in the presence of sucrose than in the presence of glucose”. Also, the “effect on activity of photosystem II” value on photosystem II is “contribute to maintaining the activity of photosystem II”. In addition, the “effect on D1 protein and by-products (Western Blot)” value in experiment [2] (10 mM sucrose, 1 μM atrazine) was “The same effect was observed”; in experiment [2] (80 mM sucrose, 1 μM atrazine), “causes a decrease in the D1 protein”; in experiment [2] (sucrose in the culture medium, 0.25 μM atrazine) it was “greater accumulation of the D1 protein and its by-products”. Moreover, the “effect on monomer of the D1 protein (Western Blot)” value in experiment [2] (80 mM sucrose, atrazine concentrations at which the monomer disappears without sucrose) was “maintain a sufficient amount of monomer of the D1 protein”. In addition, in experiment [2] (high sucrose concentrations, absence of atrazine), the “effect on D1 protein (Western Blot)” value was “decrease in D1 protein production”. In addition, the “effect of sucrose on production of active oxygen species such as the superoxide ion” value in the experiment on superoxide ion (in the presence of atrazine) is “does not prevent the production”. Also, the “seedlings on contaminated humus with sucrose compared with no sucrose” value in the experiment on Arabidopsis thaliana [3] was “more numerous and larger”.

On to `CCNc1nc(Cl)nc(NC(C)C)n1` [atrazine, 2-chloro-4-ethylamino-6-isopropylamine-1,3,5-triazine], for which the “effect on the length of the primary roots” value with Arabidopsis thaliana [1] (1 to 10 μM atrazine, in the presence of 80 mM sucrose or 80 mM glucose) was “inhibiting but non-lethal effect”. Besides, the IC50 with Arabidopsis thaliana [1] (Arabidopsis thaliana, absence of sugars in the culture medium, hyperbolic regression curve (R^2=0.93), read-out: I50 for the atrazine inhibition of primary root length) is 0.12 µM. In addition, in the experiment with Arabidopsis thaliana [1] (setting [5]), the “concentration at which inhibition of root development is complete, with discolouring and death of the plants” value is 500 nM. The “effect on root growth” value in the experiment with Arabidopsis thaliana [1] (atrazine concentrations higher than 10 μM, in the presence of 80 mM sucrose or 80 mM glucose) was “paradoxically enable the root growth to improve”. Further, the “concentration at which chlorophylls and carotenoids disappear completely” value in the experiment on Arabidopsis thaliana [4] (setting [5]) was found to be 500 nM. The “effect on levels of chlorophylls and carotenoids in the leaves” value in the experiment with Arabidopsis thaliana [4] (in the presence of 80 mM sucrose or 80 mM glucose) was “the production of these pigments is not suppressed”. Moreover, the “effect on D1 protein (Dot Blot, all D1 proteins)” value in experiment [2] (1 μM atrazine, plants not cultivated in the presence of sucrose) is reported as “causes the disappearance of the D1 protein”. Also, the “effect on superoxide ion production” value in the experiment with superoxide ion (increasing atrazine levels) is “appears to increase in the presence of atrazine”.
